The values below are quoted from earlier work in patent publication US20140037700A1, “Composition and Method for Enhancing an Immune Response” (priority 2011, published 2014).

For data set [1], the system named is M. tuberculosis survival within macrophages.
A further data set relates to TACO gene transcription. The following applies: human macrophages.
The subject of data set [2] is M. tb cells in NRP2 state. The following applies: oxygen 0.06% of normal saturation (anaerobic).
The test system of data set [3] is tuberculosis growth in human monocytes. Details: dose or concentration left out as unconfirmed. The following applies: alone, in vitro; Denis et al.
Data set [4] relates to anti-microbial peptide cathelicidin. To be noted: exposure of macrophages.
The conditions of data set [5]: in the presence of a normal or high calcium diet; DeLuca et al.
For data set [6] the following is noted: combined with liposomes.

Consider epigallocatechin-3-gallate [EGCG], for which, in data set [1] (in vitro, flow cytometry and colony counts), the “mycobacterium survival within macrophages” value is on record as “substantially reduced mycobacterium survival”. For the same compound, the “M. tuberculosis survival within macrophages” value in data set [1] (used prior to M. tb exposure in vitro) is recorded as “completely inhibits”. Also, the TACO gene transcription result in the data set with TACO gene transcription is reported as “down-regulates TACO gene transcription in a dose-dependent manner”.
`Cc1ncc([N+](=O)[O-])n1CCO` [metronidazole]: the “susceptibility of NRP2 cells to antibiotic” value in data set [2] is reported as “sensitive”.
On to `C=C1/C(=C\C=C2/CCC[C@]3(C)[C@@H]([C@H](C)CCCC(C)(C)O)CC[C@@H]23)C[C@@H](O)C[C@@H]1O` [Calcitriol, 1,25-dihydroxyvitamin D], for which the “ability of human monocytes to restrict tuberculosis growth” value in data set [3] is given as “significant ability to restrict tuberculosis growth”. For the same compound, the “expression of anti-microbial peptide cathelicidin” value in data set [4] is “induces expression”. Besides, in the data set with M.tb within macrophages (even at extremely low concentrations, Crowle et al.), the “bacillary replication in macrophages” value was “slow and stop bacillary replication”. In the data set with M.tb within macrophages (primary human macrophages infected with virulent M. tb), the colony forming units entry is given as “reduced colony forming units”. For the same compound, in data set [5], the “prevention or suppression of autoimmune disease in models” value was “prevent or markedly suppress”.
`NNC(=O)c1ccncc1` [isoniazid]: in data set [2], the “susceptibility of NRP2 cells to antibiotic” value is “resistant”.
Turning to Monophosphoryl lipid A, in data set [6], the mucosal immunoprotective responses result is on record as “induce mucosal immunoprotective responses”.
